Assay results taken from ChEMBL document CHEMBL1158147, “Ultraviolet-mediated cytotoxic activity of phenylheptatriyne from Bidens pilosa L” (J Nat Prod, 1979).
Calls of active or inactive are those of the source. No cut-off for these calls is given here.

Tests used:
[1] = system: Saccharomyces cerevisiae; experiment: Phototoxicity against Saccharomyces cerevisiae at 5 ug/disk in presence of long wave UV light; type: functional, organism-based
[2] = system: DNA; experiment: Photochemical activity against denatured calf thymus DNA at in dark after 120 mins by hyperchromicity test; type: nucleic-acid assay; settings: Bos taurus; note: unit not given here
[3] = Effect on human skin fibroblast cells assessed as viable cell count at 10 ug/ml in petroleum ether after 3.53 Joules/cm UV irradiation for 40 mins by trypan blue exclusion method; type: ADME, cell-based; settings: read-out: Activity
[4] = system: Trichophyton mentagrophytes; experiment: Phototoxicity against Trichophyton mentagrophytes at 5 ug/disk in presence of long wave UV light; type: functional, organism-based
[5] = system: Saccharomyces cerevisiae; experiment: Phototoxicity against Saccharomyces cerevisiae at 5 ug/disk in presence of cool-white fluorescent light; type: functional, organism-based
[6] = system: Proteus mirabilis; experiment: Phototoxicity against Proteus mirabilis UBC 5 at 5 ug/disk in dark; type: functional, organism-based
[7] = system: Torula; experiment: Phototoxicity against Torula sp. at 5 ug/disk in dark; type: functional, organism-based
[8] = system: DNA; experiment: Photochemical activity against denatured calf thymus DNA 10 ug after UV irradiation with 2.67 Joules/cm'2 for 30 mins at by hyperchromicity test; type: nucleic-acid assay; settings: Bos taurus
[9] = system: Enterococcus faecalis; experiment: Phototoxicity against Streptococcus faecalis at 5 ug/disk in presence of long wave UV light; type: functional, organism-based
[10] = system: Staphylococcus epidermidis; experiment: Phototoxicity against Staphylococcus albus at 5 ug/disk in presence of cool-white fluorescent light; type: functional, organism-based
[11] = system: Candida albicans; experiment: Phototoxicity against Candida albicans at 5 ug/disk in dark; type: functional, organism-based
[12] = system: Bacillus subtilis; experiment: Phototoxicity against Bacillus subtilis at 5 ug/disk in presence of long wave UV light; type: functional, organism-based
[13] = system: Paraphyton cookei; experiment: Phototoxicity against Microsporum cookei at 5 ug/disk in presence of cool-white fluorescent light; type: functional, organism-based
[14] = system: Saccharomyces cerevisiae; experiment: Phototoxicity against Saccharomyces cerevisiae at 2.5 ug/disk after UV irradiation for 15 mins; type: functional; settings: light or radiation study, 0.25 h, read-out: IZ
[15] = system: Paraphyton cookei; experiment: Phototoxicity against Microsporum cookei at 5 ug/disk in presence of long wave UV light; type: functional, organism-based
[16] = system: Escherichia coli; experiment: Phototoxicity against Escherichia coli at 5 ug/disk in presence of long wave UV light; type: functional, organism-based
[17] = Effect on human skin fibroblast cells assessed as viable cell count at 10 ug/ml in petroleum ether after 8.00 Joules/cm UV irradiation for 90 mins by trypan blue exclusion method; type: ADME, cell-based; settings: read-out: Activity
[18] = system: Enterococcus faecalis; experiment: Phototoxicity against Streptococcus faecalis at 5 ug/disk in presence of cool-white fluorescent light; type: functional, organism-based
[19] = system: DNA; experiment: Photochemical activity against denatured calf thymus DNA at 10 ug in dark after 30 mins by hyperchromicity test; type: nucleic-acid assay; settings: Bos taurus
[20] = system: Nannizzia gypsea; experiment: Phototoxicity against Microsporum gypseum at 5 ug/disk in presence of cool-white fluorescent light; type: functional, organism-based
[21] = system: Kocuria rosea; experiment: Phototoxicity against Micrococcus roseus UBC 289 at 5 ug/disk in presence of cool-white fluorescent light; type: functional, organism-based
[22] = system: Saccharomyces cerevisiae; experiment: Phototoxicity against Saccharomyces cerevisiae at 5 ug/disk in dark; type: functional, organism-based
[23] = system: Microsporum canis; experiment: Phototoxicity against Microsporum canis at 5 ug/disk in dark; type: functional, organism-based
[24] = system: Nannizzia gypsea; experiment: Phototoxicity against Microsporum gypseum at 5 ug/disk in presence of long wave UV light; type: functional, organism-based
[25] = system: Sporobolomyces; experiment: Phototoxicity against Sporobolomyces sp. Y138 at 5 ug/disk in presence of long wave UV light; type: functional, organism-based
[26] = Effect on human skin fibroblast cells assessed as viable cell count at 10 ug/ml in petroleum ether after 5.33 Joules/cm UV irradiation for 60 mins by trypan blue exclusion method; type: ADME, cell-based; settings: read-out: Activity
[27] = system: Trichophyton mentagrophytes; experiment: Phototoxicity against Trichophyton mentagrophytes at 5 ug/disk in presence of cool-white fluorescent light; type: functional, organism-based
[28] = system: Microsporum canis; experiment: Phototoxicity against Microsporum canis at 5 ug/disk in presence of cool-white fluorescent light; type: functional, organism-based
[29] = system: Torula; experiment: Phototoxicity against Torula sp. at 5 ug/disk in presence of long wave UV light; type: functional, organism-based
[30] = system: Saccharomyces cerevisiae; experiment: Effect on Saccharomyces cerevisiae assessed as viable cell count at 10 ug/ml in petroleum ether in dark after 180 mins; type: functional
[31] = system: DNA; experiment: Photochemical activity against denatured calf thymus DNA at 10 ug by hyperchromicity test; type: nucleic-acid assay; settings: Bos taurus
[32] = system: Paraphyton cookei; experiment: Phototoxicity against Microsporum cookei at 5 ug/disk in dark; type: functional, organism-based
[33] = system: Bacillus subtilis; experiment: Phototoxicity against Bacillus subtilis at 5 ug/disk in presence of cool-white fluorescent light; type: functional, organism-based
[34] = system: Saccharomyces cerevisiae; experiment: Effect on Saccharomyces cerevisiae assessed as viable cell count at 10 ug/ml in petroleum ether after 2.67 Joules/cm'2 UV irradiation for 30 mins; type: functional
[35] = system: Candida albicans; experiment: Phototoxicity against Candida albicans at 2.5 ug/disk after UV irradiation for 30 mins; type: functional, organism-based
[36] = system: Kocuria rosea; experiment: Phototoxicity against Micrococcus roseus UBC 289 at 5 ug/disk in dark; type: functional, organism-based
[37] = system: DNA; experiment: Photochemical activity against denatured calf thymus DNA at 10 ug after UV irradiation with 5.33 Joules/cm'2 for 60 mins by hyperchromicity test; type: nucleic-acid assay; settings: Bos taurus
[38] = system: Saccharomyces cerevisiae; experiment: Phototoxicity against Saccharomyces cerevisiae at 2.5 ug/disk after UV irradiation for 30 mins; type: functional, organism-based
[39] = system: Candida albicans; experiment: Phototoxicity against Candida albicans at 2.5 ug/disk after UV irradiation for 180 mins; type: functional, organism-based
[40] = system: Fusarium sp.; experiment: Phototoxicity against Fusarium sp. at 5 ug/disk in presence of cool-white fluorescent light; type: functional, organism-based
[41] = Effect on human skin fibroblast cells assessed as viable cell count at 10 ug/ml in petroleum ether after 10.67 Joules/cm UV irradiation for 120 mins by trypan blue exclusion method; type: ADME, cell-based; settings: read-out: Activity
[42] = system: Staphylococcus epidermidis; experiment: Phototoxicity against Staphylococcus albus at 5 ug/disk in presence of long wave UV light; type: functional, organism-based
[43] = system: DNA; experiment: Photochemical activity against denatured calf thymus DNA at 10 ug after UV irradiation with 16.00 Joules/cm'2 for 180 mins by hyperchromicity test; type: nucleic-acid assay; settings: Bos taurus
[44] = system: Escherichia coli; experiment: Phototoxicity against Escherichia coli at 5 ug/disk in dark; type: functional, organism-based
[45] = Effect on human skin fibroblast cells assessed as viable cell count at 10 ug/ml in petroleum ether in dark after 60 mins by trypan blue exclusion method; type: ADME, cell-based; settings: read-out: Activity
[46] = system: Kocuria rosea; experiment: Phototoxicity against Micrococcus roseus UBC 289 at 5 ug/disk in presence of long wave UV light; type: functional, organism-based
[47] = system: Enterococcus faecalis; experiment: Phototoxicity against Streptococcus fecalis at 5 ug/disk in dark; type: functional, organism-based
[48] = system: Pseudomonas fluorescens; experiment: Phototoxicity against Pseudomonas fluorescens at 5 ug/disk in presence of long wave UV light; type: functional, organism-based
[49] = system: Saccharomyces cerevisiae; experiment: Effect on Saccharomyces cerevisiae assessed as viable cell count at 10 ug/ml in petroleum ether after 5.33 Joules/cm'2 UV irradiation for 60 mins; type: functional
[50] = system: Saccharomyces cerevisiae; experiment: Effect on Saccharomyces cerevisiae assessed as viable cell count at 10 ug/ml in petroleum ether after 16 Joules/cm'2 UV irradiation for 180 mins; type: functional
[51] = system: Candida albicans; experiment: Phototoxicity against Candida albicans at 5 ug/disk in presence of long wave UV light; type: functional, organism-based
[52] = system: DNA; experiment: Photochemical activity against denatured calf thymus DNA at 10 ug after UV irradiation with 10.67 Joules/cm'2 for 120 mins by hyperchromicity test; type: nucleic-acid assay; settings: Bos taurus; note: unit not given here
[53] = system: Saccharomyces cerevisiae; experiment: Effect on Saccharomyces cerevisiae assessed as viable cell count at 10 ug/ml in petroleum ether in dark after 60 mins; type: functional

For `CC#CC#CC#Cc1ccccc1` [PHENYLHEPTATRIYNE], the Activity [1] was “Active”, the Activity [2] was 0.19 and the viability at 40 min, 10 ug/ml [3] was 50%. The Activity [4] was “Active”, the Activity [5] was “Active” and the Activity [6] was “inactive”. The Activity [7] was “inactive”, the Activity [8] was 0.03 and the Activity [9] was “Active”. For the same compound, the Activity [10] was “Active”, the Activity [11] was “inactive” and the Activity [12] was “Active”. For the same compound, the Activity [13] was “Active”, the zone of inhibition at 2.5 µg/disc [14] was 10 mm and the Activity [15] was “Active”. For the same compound, the Activity [16] was “Active”, the viability at 1.5 h, 10 ug/ml [17] was 0% and the Activity [18] was “Active”. The Activity [19] was 0.17, the Activity [20] was “Active” and the Activity [21] was “Active”. The Activity [22] was “inactive”, the Activity [23] was “inactive” and the Activity [24] was “Active”. The Activity [25] was “Active”, the viability at 1 h, 10 ug/ml [26] was 0% and the Activity [27] was “Active”. The Activity [28] was “Active”, the Activity [29] was “Active” and the Activity [30] was 53.5. For the same compound, the Activity [31] was 0.18, the Activity [32] was “inactive” and the Activity [33] was “Active”. The Activity [34] was 0.02, the Activity [35] was “inactive” and the Activity [36] was “inactive”. For the same compound, the Activity [37] was 0.02, the Activity [38] was “inactive” and the Activity [39] was “inactive”. For the same compound, the Activity [40] was “Active”, the viability at 2 h, 10 ug/ml [41] was 0% and the Activity [42] was “Active”. For the same compound, the Activity [43] was 0, the Activity [44] was “inactive” and the viability at 1 h, 10 ug/ml [45] was 100%. For the same compound, the Activity [46] was “Active”, the Activity [47] was “inactive” and the Activity [48] was “inactive”. For the same compound, the Activity [49] was 0, the Activity [50] was 0 and the Activity [51] was “Active”. It also gave an Activity [52] of 0.01 and an Activity [53] of 48.3.
